{"source": "patent EP0369744B1", "about": "“Xanthine derivatives, process for their preparation and pharmaceutical compositions” (SMITHKLINE BEECHAM PHARMA GmbH, priority 1988, dated 1990)", "test_system": "gerbils", "experiment": "Delayed neuronal death in gerbils after transient forebrain ischaemia", "assay_type": "in vivo", "experimental": "Ischaemia was produced in adult male gerbils by occlusion of both common carotid arteries for 3 minutes under halothane/nitrous oxide anaesthesia. During surgery the animals were placed upon a warming blanket. The ischaemia led to neuronal degeneration and to disturbed brain function.\nBrains were removed 2 weeks later and 12 µm thick coronal slices were examined light microscopically for neuronal degeneration.\nThree groups of animals were used: • 1. sham ligated controls • 2. solvent-treated ligated controls • 3. compound-treated ligated animals The compound was administered 1 hour before the ligation period.\nMeans ± SEM (n) of histopathological score [HPS] which reflects the degree of neuronal damage in the hippocampal CA1 field: 0 = no damaged neurons 1 = mild necrosis 2 = moderate necrosis 3 = severe necrosis 4 = complete necrosis", "data": [{"smiles": "O=c1c2[nH]cnc2n(CC2CC2)c(=O)n1CC1CC1", "note": "[Example 1, 1,3-Di-cyclopropylmethyl xanthine]", "values": [{"measurement": "ischaemia induced neuronal degeneration (conclusion)", "result": "significantly prevented ischaemia induced neuronal degeneration"}]}]}
